Source: PMC7937321 (Genes and Environment, 2021)

Experiments:
[1] = tested on: human lymphoblastoid TK6 cells, thymidine kinase gene; assay: TK gene mutation assay (TK6 assay, OECD TG490); conditions: for MF: graph sheet, TK6, 24 h
[2] = tested on: TK6 cells; assay: Cytotoxicity in the TK6 assay (CE, RS, RSG, RTG); conditions: TK6, 24 h treatment, -S9 mix
[3] = TK6, 24 h treatment, -S9 mix, dose 60.00 μg/mL
[4] = TK6, 24 h treatment, -S9 mix, dose 90.00 μg/mL
[5] = TK6, 24 h treatment, -S9 mix, dose 200.0 μg/mL
[6] = TK6, 24 h treatment, -S9 mix, dose 220.0 μg/mL
[7] = short treatment, +S9 mix, dose 62.5 μg/mL
[8] = short treatment, +S9 mix, dose 250 μg/mL
[9] = short treatment, +S9 mix, dose 500 μg/mL
[10] = short treatment, +S9 mix, dose 1000 μg/mL
[11] = short treatment, +S9 mix, dose 2000 μg/mL
[12] = short treatment, -S9 mix, dose 62.50 μg/mL
[13] = short treatment, -S9 mix, dose 500.0 μg/mL
[14] = short treatment, -S9 mix, dose 1000.0 μg/mL
[15] = short treatment, -S9 mix, dose 2000.0 μg/mL

For `O=[N+]([O-])c1cc(N(CCO)CCO)ccc1NCCO` [HC blue no2], the “%SG” value [1, 3] was 47.5%, the “Mut. freq. N-MF” value [1, 3] was 1.5 ×10-6 and the “Mut. freq. S-MF” value [1, 3] was 1.4 ×10-6. For the same molecule, the “Mut. freq. T-MF” value [1, 3] was 2.9 ×10-6, the “%SG” value [1, 4] was 74.7% and the “Mut. freq. N-MF” value [1, 4] was 0.528 ×10-6. The “Mut. freq. S-MF” value [1, 4] was 1.6 ×10-6, the “Mut. freq. T-MF” value [1, 4] was 2.1 ×10-6 and the “%SG” value [1, 5] was 48.2%. For the same molecule, the “Mut. freq. N-MF” value [1, 5] was 3.7 ×10-6, the “Mut. freq. S-MF” value [1, 5] was 3.4 ×10-6 and the “Mut. freq. T-MF” value [1, 5] was 7.1 ×10-6. For the same molecule, the “%SG” value [1, 6] was 52.5%, the “Mut. freq. N-MF” value [1, 6] was 5.1 ×10-6 and the “Mut. freq. S-MF” value [1, 6] was 5.7 ×10-6. For the same molecule, the “Mut. freq. T-MF” value [1, 6] was 10.8 ×10-6, the MF ([1]; -S9 mix, dose 60.00 μg/mL) was 2.9 and the MF ([1]; -S9 mix, dose 90.00 μg/mL) was 2.1. The MF ([1]; -S9 mix, dose 200.0 μg/mL) was 7.1, the MF ([1]; -S9 mix, dose 220.0 μg/mL) was 10.8 and the “%SG” value [1, 7] was 50.7%. For the same molecule, the “Mut. freq. N-MF” value [1, 7] was 0.7 ×10-6, the “Mut. freq. S-MF” value [1, 7] was 0.7 ×10-6 and the “Mut. freq. T-MF” value [1, 7] was 1.5 ×10-6. For the same molecule, the “%SG” value [1, 8] was 22.9%, the “Mut. freq. N-MF” value [1, 8] was 2.4 ×10-6 and the “Mut. freq. S-MF” value [1, 8] was 0.7 ×10-6. For the same molecule, the “Mut. freq. T-MF” value [1, 8] was 3.0 ×10-6, the “%SG” value [1, 9] was 42.4% and the “Mut. freq. N-MF” value [1, 9] was 1.9 ×10-6. The “Mut. freq. S-MF” value [1, 9] was 1.4 ×10-6, the “Mut. freq. T-MF” value [1, 9] was 3.3 ×10-6 and the “%SG” value [1, 10] was 28.4%. The “Mut. freq. N-MF” value [1, 10] was 2.8 ×10-6, the “Mut. freq. S-MF” value [1, 10] was 1.1 ×10-6 and the “Mut. freq. T-MF” value [1, 10] was 3.9 ×10-6. For the same molecule, the “%SG” value [1, 11] was 48.7%, the “Mut. freq. N-MF” value [1, 11] was 1.3 ×10-6 and the “Mut. freq. S-MF” value [1, 11] was 1.2 ×10-6. For the same molecule, the “Mut. freq. T-MF” value [1, 11] was 2.5 ×10-6, the “%SG” value [1, 12] was 23.1% and the “Mut. freq. N-MF” value [1, 12] was 1.5 ×10-6. For the same molecule, the “Mut. freq. S-MF” value [1, 12] was 0.455 ×10-6, the “Mut. freq. T-MF” value [1, 12] was 2.0 ×10-6 and the “%SG” value [1, 13] was 55.5%. The “Mut. freq. N-MF” value [1, 13] was 1.8 ×10-6, the “Mut. freq. S-MF” value [1, 13] was 2.3 ×10-6 and the “Mut. freq. T-MF” value [1, 13] was 4.1 ×10-6. For the same molecule, the “%SG” value [1, 14] was 26.3%, the “Mut. freq. N-MF” value [1, 14] was 2.3 ×10-6 and the “Mut. freq. S-MF” value [1, 14] was 0.8 ×10-6. For the same molecule, the “Mut. freq. T-MF” value [1, 14] was 3.1 ×10-6, the “%SG” value [1, 15] was 51.7% and the “Mut. freq. N-MF” value [1, 15] was 1.8 ×10-6. The “Mut. freq. S-MF” value [1, 15] was 1.9 ×10-6, the “Mut. freq. T-MF” value [1, 15] was 3.7 ×10-6 and the “Adjusted CE0” value ([2]; dose 60.00 μg/mL) was 341.6%. For the same molecule, the “CE0 (cell viability on Day 0)” value ([2]; dose 60.00 μg/mL) was 112.0%, the “CE3 (cell viability on Day 3)” value ([2]; dose 60.00 μg/mL) was 116.0% and the RS0 ([2]; dose 60.00 μg/mL) was 128.6%. For the same molecule, the RSG ([2]; dose 60.00 μg/mL) was 0.865, the “Adjusted CE0” value ([2]; dose 90.00 μg/mL) was 259.2% and the “CE0 (cell viability on Day 0)” value ([2]; dose 90.00 μg/mL) was 81.6%. The “CE3 (cell viability on Day 3)” value ([2]; dose 90.00 μg/mL) was 125.0%, the RS0 ([2]; dose 90.00 μg/mL) was 97.6% and the RSG ([2]; dose 90.00 μg/mL) was 0.765. The “Adjusted CE0” value ([2]; dose 200.0 μg/mL) was 96.6%, the “CE0 (cell viability on Day 0)” value ([2]; dose 200.0 μg/mL) was 50.2% and the “CE3 (cell viability on Day 3)” value ([2]; dose 200.0 μg/mL) was 112.0%.
